The target of this assay is T1, human Mnk2a (Homo sapiens, UniProt Q9HBH9).
T1 construct: made in house; host or cells: E. coli BL21 (vector pGEX-4T1)
The experiment in a line: Mnk2a in vitro kinase assay (indirect fluorescence polarization). Format: biochemical. The settings on record: GST-Mnk2a pre-activated with ERK2, 20 μM ATP, 30 μM substrate peptide; read-out: MNK2 IC50. The method, then: Inhibitory potency of compounds against Mnk1, Mnk2a and other kinases was assessed with assays based on a format known to those skilled in the art as the indirect (competitive) fluorescence polarization. The assay detection system comprises a small fluorophore-labeled phospho-peptide (termed ligand) bound to a phospho-specific antibody. The product generated by the kinase reaction competes with the ligand for antibody binding. Based on the larger molecular volume of the bound ligand, which results in a lower rotation rate in solution, its emitted light has a higher degree of polarization than the one from the free ligand.
As a source of enzyme, human Mnk1 and human Mnk2a were expressed as GST fusion proteins in E. coli, purified to >80% homogeneity by glutathione affinity chromatography and activated in vitro with pre-activated ERK2. In brief, the open reading frames of human Mnk1 and Mnk2a were amplified from cDNA using the forward/reverse primer pairs
(utilized restriction sites underlined), respectively, and cloned into the BamHI and SalI sites of the vector pGEX-4T1 (Amersham, Sweden, cat. no. 27-4580-01). These constructs allow prokaryotic expression of Mnk1 or Mnk2a as fusion protein with a N-terminal glutathione S-transferase (GST) tag, referred to as GST-Mnk1 or GST-Mnk2a. The following expression and purification procedure was identical for GST-Mnk1 and GST-Mnk2a, referring in general to GST-Mnk, when not distinguishing between the two isoforms. Expression of GST-Mnk was in E. coli BL21 (Merck Biosciences, Germany, cat. no. 69449). Cells were grown in LB-Bouillon (Merck, Germany, cat. no. 1.10285) supplemented with 100 μg/ml ampicillin (Sigma, Germany, cat. no. A9518) at 37° C. When the culture had reached a density corresponding to an A600 of 0.8, an equal volume of ice cold LB/ampicillin was added, the culture transferred to 25° C. and induced for 4 h with 1 mM isopropyl thiogalactoside (IPTG, Roth, Germany, cat. no. 2316.4). Cells harvested by centrifugation were resuspended in 10 ml lysis buffer (50 mM tris(hydroxymethyl)aminomethane hydrochloride (Tris/HCl, Sigma, Germany, cat. no. T5941) pH 7.5, 300 mM sodium chloride (NaCl, Sigma, Germany, cat. no. S7653), 5% (w/v) glycerol (Sigma, Germany, cat. no. G5516), 3 mM DTT dithiotreitol (DTT, Sigma, Germany, cat. no. D9779)) per gram wet weight cell pellet. Lysates were prepared by disruption of cells with a sonifier and subsequent clearing by centrifugation at 38000 g for 45 min at 4° C.
The lysate was applied to a GSTPrep FF 16/10 column (Amersham, Sweden, cat. no. 17-5234-01) equilibrated with lysis buffer. Removal of unbound material was with 3 column volumes (CV) lysis buffer. Elution was with 2 CV of elution buffer (50 mM Tris/HCl pH 7.5, 300 mM NaCl, 5% (w/v) glycerol, 20 mM glutathione (Sigma, Germany, cat. no. G4251)). Peak fractions were pooled and the protein transferred into storage buffer (50 mM Tris/HCl pH 7.5, 200 mM NaCl, 0.1 mM ethylene glycol-bis(2-aminoethylether)-N,N,N′,N′-tetraacetic acid (EGTA, Aldrich, Germany, cat. no. 23, 453-2), 1 mM DTT, 10% (w/v) glycerol, 0.5 M sucrose (Sigma, Germany, cat. no. SO389) by gel filtration on a PD10 desalting column (Amersham, Sweden, cat. no. 17-0851-01). Aliquots were shock frozen in liquid nitrogen and stored at −80° C.
Activation of Mnk1 and Mnk2a was at a concentration of 2.5 μM of either purified GST-Mnk1 or GST-Mnk2a by incubation with 150 nM pre-activated NHis-ERK2 (see ERK2 assay for preparation) and 50 μM adenosine triphosphate (ATP, Sigma, cat. no. A2699) in a buffer comprising 20 mM N-(2-hydroxyethyl)piperazine-N′-(2-ethanesulfonic acid) (HEPES, Fluka, Germany, cat. no 54459)/potassium hydroxide (KOH, Roth, Germany, cat. no 6751.1) pH 7.4, 10 mM magnesium chloride (MgCl2, Sigma, Germany, cat. no. M2670), 0.25 mM DTT, 0.05% (w/v) polyoxyethylene 20 stearylether (Brij 78, Sigma, Germany, cat. no. P4019) (HMDB buffer) for 45 min at 30° C. […]

The structures appear in SMILES notation.

T1 sequence (Q9HBH9 whole entry): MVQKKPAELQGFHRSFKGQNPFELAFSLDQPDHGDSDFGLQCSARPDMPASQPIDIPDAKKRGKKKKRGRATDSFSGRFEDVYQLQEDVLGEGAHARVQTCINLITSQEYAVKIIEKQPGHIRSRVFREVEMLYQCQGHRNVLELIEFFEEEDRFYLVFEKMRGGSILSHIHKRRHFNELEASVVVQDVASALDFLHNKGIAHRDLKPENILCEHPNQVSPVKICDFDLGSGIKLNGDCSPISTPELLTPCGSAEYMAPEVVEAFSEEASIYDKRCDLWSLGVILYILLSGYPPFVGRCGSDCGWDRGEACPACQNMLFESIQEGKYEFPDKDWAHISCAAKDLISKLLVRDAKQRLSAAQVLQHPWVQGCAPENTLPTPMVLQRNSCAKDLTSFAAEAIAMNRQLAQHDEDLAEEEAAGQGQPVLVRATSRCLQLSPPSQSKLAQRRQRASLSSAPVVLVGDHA

As usually defined, the IC50 is the midpoint of a concentration-inhibition curve. As to `Cc1c(C(N)=O)sc2ncnc(Nc3ccc(F)cc3O[C@@H]3CCCN(CCO)C3)c12` [Example 80], the IC50 worked out at 20 nM.

Take `Cc1c(C(N)=O)sc2ncnc(Nc3ccc(F)cc3O[C@@H]3CCCN(Cc4cccn4C)C3)c12` [Example 81]: the IC50 amounted to 6 nM.

On to `Cc1c(C(N)=O)sc2ncnc(Nc3ccc(F)cc3O[C@@H]3CCCN(CCC#N)C3)c12` [Example 82, 4-{2-[(R)-1-(2-Cyano-ethyl)-piperidin-3-yloxy]-4-fluoro-phenylamino}-5-methyl-thieno[2,3-d]pyrimidine-6-carboxylic acid amide], for which the IC50 came to 8 nM.

With `CC(=O)N1CCC[C@@H](Oc2cc(F)ccc2Nc2ncnc3sc(C(N)=O)c(C)c23)C1` [Example 83], the IC50 is 120 nM.

As for `Cc1c(C(N)=O)sc2ncnc(Nc3ccc(F)cc3O[C@@H]3CCCN(S(C)(=O)=O)C3)c12` [Example 84, 4-[4-Fluoro-2-((R)-1-methanesulfonyl-piperidin-3-yloxy)-phenylamino]-5-methyl-thieno[2,3-d]pyrimidine-6-carboxylic acid amide], the IC50 came to 2 nM.

In the case of `Cc1c(C(=O)NCCCN(C)C)sc2ncnc(Nc3ccc(F)cc3O[C@@H]3CCCN(S(C)(=O)=O)C3)c12` [Example 85], the IC50 was determined as 7 nM.

As to `Cc1c(C(=O)NCCO)sc2ncnc(Nc3ccc(F)cc3O[C@@H]3CCCN(S(C)(=O)=O)C3)c12` [Example 86], the IC50 was found to be 6 nM.

Regarding `Cc1c(C(=O)NCCCN(C)C)sc2ncnc(Nc3ccc(F)cc3O[C@H]3CCCOC3)c12` [Example 87, 4-{4-Fluoro-2-[(S)-(tetrahydro-pyran-3-yl)oxy]-phenylamino}-5-methyl-thieno[2,3-d]pyrimidine-6-carboxylic acid (3-dimethylamino-propyl)-amide], the IC50 was 12 nM.

Consider `Cc1c(C(=O)NCCCN(C)C)sc2ncnc(Nc3ccc(F)cc3O[C@@H]3CCCOC3)c12` [Example 88, 4-{4-Fluoro-2-[(R)-(tetrahydro-pyran-3-yl)oxy]-phenylamino}-5-methyl-thieno[2,3-d]pyrimidine-6-carboxylic acid (3-dimethylamino-propyl)-amide], for which the IC50 amounted to 22 nM.

Regarding `Cc1c(C(N)=O)sc2ncnc(Nc3ccc(F)cc3OC3CCN(S(C)(=O)=O)C3)c12` (centres unmarked) [Example 89, 4-[4-Fluoro-2-(1-methanesulfonyl-pyrrolidin-3-yloxy)-phenylamino]-5-methyl-thieno[2,3-d]pyrimidine-6-carboxylic acid amide], the IC50 was 8 nM.

Turning to `CNC(=O)c1sc2ncnc(Nc3ccc(F)cc3OC3CCN(S(C)(=O)=O)C3)c2c1C` (centres unmarked) [Example 90], the IC50 was found to be 14 nM.

On to `Cc1c(C(=O)NC2CCN(C)CC2)sc2ncnc(Nc3ccc(F)cc3OC3CCN(S(C)(=O)=O)C3)c12` (centres unmarked) [Example 91], for which the IC50 came out at 51 nM.

As for `CONC(=O)c1sc2ncnc(Nc3ccc(F)cc3OC3CCN(S(C)(=O)=O)C3)c2c1C` (centres unmarked) [Example 92], the IC50 turned out to be 45 nM.

Consider `Cc1c(C(=O)NO)sc2ncnc(Nc3ccc(F)cc3OC3CCN(S(C)(=O)=O)C3)c12` (centres unmarked) [Example 93], for which the IC50 was 19 nM.

Consider `COCC(=O)N1CCC(Oc2cc(F)ccc2Nc2ncnc3sc(C(N)=O)c(C)c23)C1` (centres unmarked) [Example 94, 4-{4-Fluoro-2-[1-(2-methoxy-acetyl)-pyrrolidin-3-yloxy]-phenylamino}-5-methyl-thieno[2,3-d]pyrimidine-6-carboxylic acid amide], for which the IC50 worked out at 300 nM.

On to `Cc1c(C(N)=O)sc2ncnc(Nc3ccc(F)cc3OC3CCN(C(=O)CN(C)C)C3)c12` (centres unmarked) [Example 95, 4-{2-[1-(2-Dimethylamino-acetyl)-pyrrolidin-3-yloxy]-4-fluoro-phenylamino}-5-methyl-thieno[2,3-d]pyrimidine-6-carboxylic acid amide], for which the IC50 turned out to be 460 nM.

`CC(=O)N1CC[C@H](Oc2cc(F)ccc2Nc2ncnc3sc(C(N)=O)c(C)c23)C1` [Example 96, 4-[2-((S)-1-Acetyl-pyrrolidin-3-yloxy)-4-fluoro-phenylamino]-5-methyl-thieno[2,3-d]pyrimidine-6-carboxylic acid amide]: the IC50 was found to be 1100 nM.

On to `CC(=O)N1CC[C@@H](Oc2cc(F)ccc2Nc2ncnc3sc(C(N)=O)c(C)c23)C1` [Example 98, 4-[2-((R)-1-Acetyl-pyrrolidin-3-yloxy)-4-fluoro-phenylamino]-5-methyl-thieno[2,3-d]pyrimidine-6-carboxylic acid amide], for which the IC50 amounted to 94 nM.

For `Cc1c(C(N)=O)sc2ncnc(Nc3ccc(F)cc3O[C@@H]3CCN(S(C)(=O)=O)C3)c12` [Example 99, 4-[4-Fluoro-2-((R)-1-methanesulfonyl-pyrrolidin-3-yloxy)-phenylamino]-5-methyl-thieno[2,3-d]pyrimidine-6-carboxylic acid amide], the IC50 is 6 nM.

`Cc1c(C(=O)NC#N)sc2ncnc(Nc3ccc(F)cc3O[C@@H]3CCOC3)c12` [Example 100, (R)—N-cyano-4-(4-fluoro-2-(tetrahydrofuran-3-yloxy)phenylamino)-5-methylthieno[2,3-d]pyrimidine-6-carboxamide]: the IC50 was determined as 5 nM.

Turning to `Cc1c(C(=O)NS(C)(=O)=O)sc2ncnc(Nc3ccc(F)cc3O[C@@H]3CCOC3)c12` [Example 101, N-(4-{4-Fluoro-2-[(R)-(tetrahydro-furan-3-yl)oxy]-phenylamino}-5-methyl-thieno[2,3-d]pyrimidine-6-carbonyl)-methanesulfonamide], the IC50 worked out at 11 nM.

Regarding `CONC(=O)c1sc2ncnc(Nc3ccc(F)cc3O[C@@H]3CCOC3)c2c1C` [Example 102, 4-{4-Fluoro-2-[(R)-(tetrahydro-furan-3-yl)oxy]-phenylamino}-5-methyl-thieno[2,3-d]pyrimidine-6-carboxylic acid methoxy-amide], the half-maximal inhibitory concentration (IC50) was determined as 32 nM.

On to `Cc1c(C(=O)NCCCN(C)C)sc2ncnc(Nc3ccc(F)cc3O[C@@H]3CCOC3)c12` [Example 103, 4-{4-Fluoro-2-[(R)-(tetrahydro-furan-3-yl)oxy]-phenylamino}-5-methyl-thieno[2,3-d]pyrimidine-6-carboxylic acid (3-dimethylamino-propyl)-amide], for which the IC50 amounted to 26 nM.

As to `Cc1c(C(N)=O)sc2ncnc(Nc3ccc(F)cc3O[C@@H]3CCOC3)c12` [Example 104], the IC50 was 12 nM.

Turning to `Cc1c(C(=O)NCC2CN(C)CCO2)sc2ncnc(Nc3ccc(F)cc3O[C@@H]3CCOC3)c12` (some centres unmarked) [Example 105], the IC50 stood at 20 nM.

In the case of `Cc1c(C(=O)NCCCN2CCCC2)sc2ncnc(Nc3ccc(F)cc3O[C@@H]3CCOC3)c12` [Example 106], the IC50 was found to be 25 nM.

Regarding `Cc1c(C(=O)NC2CC2)sc2ncnc(Nc3ccc(F)cc3O[C@@H]3CCOC3)c12` [Example 107], the IC50 is 26 nM.

With `Cc1c(C(=O)NCCCN(C)C)sc2ncnc(Nc3ccc(F)cc3O[C@H]3CCOC3)c12` [Example 108, 4-{4-Fluoro-2-[(S)-(tetrahydro-furan-3-yl)oxy]-phenylamino}-5-methyl-thieno[2,3-d]pyrimidine-6-carboxylic acid (3-dimethylamino-propyl)-amide], the IC50 came out at 26 nM.

Turning to `Cc1c(C(N)=O)sc2ncnc(Nc3ccc(F)cc3O[C@H]3CCOC3)c12` [Example 109], the IC50 is 9 nM.
